Data: patent US20200407398A1, “Short Proline-Rich Lipopeptide Potentiates Minocycline and Rifampicin Against Multidrug-and Extensively Drug-Resistant Pseudomonas Aeruginosa” (priority 2018, published 2020)
Where two headings read alike, the source gives them in different places. Peptide text beside a SMILES is read from it. * marks the point of attachment. Palmitoyl = CCCCCCCCCCCCCCCC(=O)*; Octanoyl = CCCCCCCC(=O)*

Assays:
[1] = tested on: A. baumannii CAN-ICU 63169; assay type: cell-based
Experimental: (§1) The synthesized SPRLPs were evaluated for their antibacterial potency against a panel of Gram-positive and Gram-negative bacteria (Tables 2 & 3). Some of the included pathogens were collected from patients visiting or admitted to participating Canadian hospitals through the CAN-ICU (27) and CANWARD (28) national surveillance studies. Antibacterial activity was assessed using minimum inhibitory concentration (MIC) against various clinical pathogens.
(§2) Isolates used in this study were either obtained from the American Type Culture Collection (ATCC), the Canadian National Intensive Care Unit (CAN-ICU) surveillance study (27) or the Canadian Ward Surveillance (CANWARD) study (28). Clinical isolates belonging to the CAN-ICU and CANWARD studies were recovered from patients suffering a presumed infectious disease entering or admitted in a participating medical center across Canada during the time of study. MDR P. aeruginosa strains in this study refer to those that are resistant to aminoglycosides, fluoroquinolones, cephalosporins, and carbapenems while XDR strains are those that are resistant to aminoglycosides, fluoroquinolones, cephalosporins, carbapenems, aztreonam and penicillin+β-lactamase inhibitor combination (39, 40).
(§3) Microbroth dilution susceptibility test following the Clinical and Laboratory Standards Institute (CLSI) guidelines (32) was performed to assess the in vitro antibacterial activity of SPRLPs. Overnight grown bacterial cultures were diluted in saline to achieve a 0.5 McFarland turbidity, followed by 1:50 dilution in Mueller-Hinton broth (MHB) for inoculation to a final concentration of 5×10^5 colony forming units/mL. The assay was done on a 96-well plate to which the agents of interest were 2-fold serially diluted in MHB and incubated with equal volumes of inoculum at 37° C. for 18 hours. MIC was determined as the lowest concentration to inhibit visible bacterial growth in form of turbidity, which was confirmed using EMax Plus microplate reader (Molecular Devices, USA) at a wavelength of 590 nm. The well containing MHB broth with or without bacterial cells was used as positive or negative control, respectively.

E. coli ATCC 25922 = assay type: cell-based
Experimental: as §1, §2, §3

[2] = tested on: E. coli CAN-ICU 61714 (gentamicin-resistant); assay type: cell-based
Experimental: as §1, §2, §3

[3] = tested on: E. coli CAN-ICU 63074 (amikacin-intermediate resistant); assay type: cell-based
Experimental: as §1, §2, §3

[4] = tested on: E. coli CANWARD-2011 97615 (gentamicin-, tobramycin-, ciprofloxacin-resistant) aac(3′)iia; assay type: cell-based
Experimental: as §1, §2, §3

E. faecalis ATCC 29212 = assay type: cell-based
Experimental: as §1, §2, §3

E. faecium ATCC 27270 = assay type: cell-based
Experimental: as §1, §2, §3

K. pneumoniae ATCC 13883 = assay type: cell-based
Experimental: as §1, §2, §3

P. aeruginosa ATCC 27853 = assay type: cell-based
Experimental: as §1, §2, §3

[5] = tested on: P. aeruginosa CAN-ICU 62308 (gentamicin-resistant); assay type: cell-based
Experimental: as §1, §2, §3

[6] = tested on: P. aeruginosa CANWARD-2011 96846 (gentamicin-, tobramycin-resistant); assay type: cell-based
Experimental: as §1, §2, §3

[7] = tested on: P. aeruginosa wild-type PAO1; assay type: cell-based
Experimental: as §1, §2, §3

S. aureus ATCC 29213 = assay type: cell-based
Experimental: as §1, §2, §3

[8] = tested on: S. maltophilia CAN-ICU 62584; assay type: cell-based
Experimental: as §1, §2, §3

[9] = tested on: methicillin-resistant S. aureus ATCC 33592; assay type: cell-based
Experimental: as §1, §2, §3

[10] = tested on: methicillin-resistant S. epidermidis CAN-ICU 61589 (ceftazidime-resistant); assay type: cell-based; settings: methicillin-resistant CAN-ICU 61589 (ceftazidime-resistant)
Experimental: as §1, §2, §3

[11] = tested on: methicillin-susceptible Staphylococcus epidermidis CANWARD-2008 81388; assay type: cell-based; settings: methicillin-susceptible CANWARD-2008 81388
Experimental: as §1, §2, §3

pig erythrocytes = assay type: cell-based
Experimental: Since PRAMPs are able to kill bacteria through membrane lysis, it is imperative to evaluate whether these synthesized SPRLPs also lyse eukaryotic membranes. The ability to lyse porcine red blood cells was assessed and the minimum concentration to result in 5% erythrocyte hemolysis (MHC) was reported (Tables 2 & 3). […] This greatly limits their therapeutic potential. […] However, all other SPRLPs were non-hemolytic (MHC>512 μg/mL).
The ability of SPRLPs to lyse eukaryotic red blood cells were quantified by the amount of hemoglobin released upon incubation with pig erythrocytes, following published protocols (37, 39). Fresh pig blood drawn from pig antecubital vein was centrifuged at 1000×g for 5 minutes at 4° C., washed with PBS three times and re-suspended in the same buffer, consecutively. Then, agents of interest were 2-fold serially diluted in PBS on 96-well plate and mixed with equal volumes of erythrocyte solution. Post 1-hour incubation at 37° C., intact cells were pelleted by centrifugation at 1000×g for 5 minutes at 4° C. The supernatant was then transferred to a new 96-well plate. The hemoglobin released was measured via EMax Plus microplate reader (Molecular Devices, USA) at 570 nm wavelength. Erythrocytes in PBS with or without 0.1% Triton X-100 was used as negative or positive control, respectively.

[12] = tested on: wild-type and MDR/XDR P. aeruginosa clinical isolates; settings: checkerboard assay; P. aeruginosa
Experimental: (§4) We evaluated the activity of SPRLPs in combination with fifteen clinically-used antibiotics against P. aeruginosa. Antibiotics tested included fluoroquinolones (moxifloxacin, ciprofloxacin and levofloxacin), aminoglycosides (gentamicin, tobramycin and amikacin), cephalosporins (ceftazidime and cefotaxime), carbapenems (meropenem and doripenem), aztreonam, rifampicin, minocycline, colistin and fosfomycin. The SPRLPs were screened initially at a fixed concentration of 8 μg/mL (5 μM) in combination with antibiotics against wild-type P. aeruginosa PAO1. We assessed potentiation by at least a four-fold absolute MIC reduction of the antibiotic, after which synergism was further validated by a conventional checkerboard assay. A fractional inhibitory concentration (FIC) index of ≤0.5, 0.5<x≤4 or >4 was interpreted as synergistic, indifferent or antagonistic interaction, respectively (31). FIC index was obtained by adding the FIC values of the antibiotic and the SPRLP adjuvant. FIC of antibiotics was calculated by dividing the MIC of the antibiotic in the presence of the adjuvant by the MIC of the antibiotic alone. Similarly, the FIC of adjuvant was calculated via dividing the MIC of the adjuvant in the presence of the antibiotic by the MIC of the adjuvant alone.
as §2, §3
(§5) The assay was performed on a 96-well plate, to which the agents of interest was 2-fold serially diluted in working MHB. Prior to serial dilution, SPRLP was added to the working MHB media so that a fixed final concentration of 8 μg/mL (5 μM) SPRLP per well was achieved. To ensure that the assay was working, the MIC determination test of the studied antibiotic (without SPRLP) was included on the same plate. Similar MIC results between the assay comparator and an independent MIC determination test (on a different plate) ensured validity of the synergy test. Overnight grown bacterial cultures were diluted in saline to 0.5 McFarland turbidity, followed by 1:50 dilution in MHB (without SPRLP) and inoculation into each well to a final concentration of approximately 5×10^5 colony forming units/mL. Wells containing only MHB (without SPRLP) with or without bacterial cells were used as positive or negative control, respectively.

Gram-positive bacteria = assay: Microbroth dilution MIC, range over panel; assay type: cell-based; settings: against Gram-positive bacteria of the panel
Experimental: as §1, §3

[13] = tested on: P. aeruginosa PAO1 (wild-type); assay: microbe, parasite or virus in culture; settings: Pseudomonas aeruginosa, PAO1, read-out: MIC (agent alone)
Experimental: as §4, §3
as §5, with “respectively. The plate was then incubated at 37° C. for 18 hours and examined for visible turbidity, to which was confirmed using EMax Plus microplate reader (Molecular Devices, USA) at a wavelength of 590 nm. A 4-fold or more MIC reduction of antibiotic in the presence of 8 μg/mL (5 μM) SPRLP denoted a positive synergy result and was further validated by a checkerboard assay.” for “respectively.”
The assay was done on a 96-well plate as previously described (40, 41). The agent of interest was 2-fold serially diluted along the x-axis, while the adjuvant was 2-fold serially diluted along the y-axis to create a matrix in which each well consist of a combination of both at different concentrations.

[14] = tested on: P. aeruginosa 100036 (MDR/XDR); assay: microbe, parasite or virus in culture; settings: Pseudomonas aeruginosa, read-out: MIC (agent alone)
Experimental: as §4, §2, §3, §5

[15] = tested on: P. aeruginosa 101243 (colistin-resistant, MDR/XDR); assay: microbe, parasite or virus in culture; settings: antibiotic or lipopeptide alone; for MIC: Pseudomonas aeruginosa, read-out: MIC (agent alone), P. aeruginosa 101243 (colistin-resistant)
Experimental: as §4, §2, §3, §5

[16] = tested on: P. aeruginosa 101885 (MDR/XDR); assay: microbe, parasite or virus in culture; settings: Pseudomonas aeruginosa, read-out: MIC (agent alone)
Experimental: as §4, §2, §3, §5

[17] = tested on: P. aeruginosa 259-96918 (MDR/XDR); assay: microbe, parasite or virus in culture; settings: Pseudomonas aeruginosa, read-out: MIC (agent alone)
Experimental: as §4, §2, §3, §5

[18] = tested on: P. aeruginosa 260-97103 (MDR/XDR); assay: microbe, parasite or virus in culture; settings: Pseudomonas aeruginosa, read-out: MIC (agent alone)
Experimental: as §4, §2, §3, §5

[19] = tested on: P. aeruginosa 262-101856 (MDR/XDR); assay: microbe, parasite or virus in culture; settings: Pseudomonas aeruginosa, read-out: MIC (agent alone)
Experimental: as §4, §2, §3, §5

[20] = tested on: P. aeruginosa 264-104354 (MDR/XDR); assay: microbe, parasite or virus in culture; settings: Pseudomonas aeruginosa, read-out: MIC (agent alone)
Experimental: as §4, §2, §3, §5

[21] = tested on: P. aeruginosa 91433 (colistin-resistant, MDR/XDR); assay: microbe, parasite or virus in culture; settings: Pseudomonas aeruginosa, read-out: MIC (agent alone)
Experimental: as §4, §2, §3, §5

Row | SMILES | MIC [1] | MIC (E. coli ATCC 25922) | MIC [2] | MIC [3] | MIC [4] | MIC (E. faecalis ATCC 29212) | MIC (E. faecium ATCC 27270) | MIC (K. pneumoniae ATCC 13883) | MIC (P. aeruginosa ATCC 27853) | MIC [5] | MIC [6] | MIC [7] | MIC (S. aureus ATCC 29213) | MIC [8] | MIC [9] | MIC [10] | MIC [11] | MIC [13] | MIC [14] | MIC [15] | also measured
1 | CCCCCCCC(=O)N1CCC[C@H]1C(=O)N[C@@H](CCCNC(=N)N)C(=O)N1CCC[C@H]1C(=O)N[C@@H](CCCNC(=N)N)C(=O)N1CCC[C@H]1C(=O)N[C@@H](CCCNC(=N)N)C(=O)N1CCC[C@H]1C(N)=O [Compound C8-PRP, CH3(CH2)6CO-PRPRPRP-NH2] (Octanoyl-PRPRPRP-NH2) | >128 µg/mL | >128 µg/mL | >128 µg/mL | >128 µg/mL | >128 µg/mL | >128 µg/mL | >128 µg/mL | >128 µg/mL | >128 µg/mL | >128 µg/mL | >128 µg/mL | >512 µg/mL | >128 µg/mL | >128 µg/mL | >128 µg/mL | >128 µg/mL | >128 µg/mL | – | – | – | MHC (minimum concentration that resulted in 5% red blood cell hemolysis) (pig erythrocytes; red cells of porcine): >512 µg/mL; interaction with minocycline (in words) [12]: indifferent interaction; interaction with rifampicin (in words) [12]: indifferent interaction
2 | CCCCCCCCCCCCCCCC(=O)N1CCC[C@H]1C(=O)N[C@@H](CCCNC(=N)N)C(=O)N1CCC[C@H]1C(=O)NCC(=O)N1CCC[C@H]1C(=O)N[C@@H](CCCNC(=N)N)C(=O)N1CCC[C@H]1C(N)=O [Compound C16-PGP, CH3(CH2)14CO-PRPGPRP-NH2] (Palmitoyl-PRPGPRP-NH2) | 32 µg/mL | 32 µg/mL | 32 µg/mL | 32 µg/mL | 32 µg/mL | 16 µg/mL | 16 µg/mL | 64 µg/mL | 128 µg/mL | 128 µg/mL | 128 µg/mL | 64 µg/mL | 32 µg/mL | 128 µg/mL | 32 µg/mL | 16 µg/mL | 8 µg/mL | – | – | – | MHC (minimum concentration that resulted in 5% red blood cell hemolysis) (pig erythrocytes): 16 µg/mL; MIC range (Gram-positive bacteria): 8 to 32 µg/mL
3 | CN(C)c1ccc(O)c2c1C[C@H]1C[C@H]3[C@H](N(C)C)C(O)=C(C(N)=O)C(=O)[C@@]3(O)C(O)=C1C2=O [minocycline] | – | – | – | – | – | – | – | – | – | – | – | – | – | – | – | – | – | 8 µg/mL | 16 µg/mL | 2 µg/mL | MIC (agent alone) ([15]; P. aeruginosa 101243 (colistin-resistant)): 4 µg/mL; MIC [16]: 16 µg/mL; MIC [17]: 16 µg/mL; MIC [18]: 16 µg/mL; MIC [19]: 64 µg/mL; MIC [20]: 32 µg/mL; MIC [21]: 32 µg/mL
4 | CO[C@H]1/C=C/O[C@@]2(C)Oc3c(C)c(O)c4c(O)c(c(/C=N/N5CCN(C)CC5)c(O)c4c3C2=O)NC(=O)/C(C)=C\C=C\[C@H](C)[C@H](O)[C@@H](C)[C@@H](O)[C@@H](C)[C@H](OC(C)=O)[C@@H]1C [rifampicin] | – | – | – | – | – | – | – | – | – | – | – | – | – | – | – | – | – | 8 µg/mL | 16 µg/mL | 4 µg/mL | MIC [16]: 16 µg/mL; MIC [17]: 16 µg/mL; MIC [18]: 16 µg/mL; MIC [19]: 512 µg/mL; MIC [20]: 8 µg/mL; MIC [21]: 16 µg/mL
